Laboratory results reported in patent US20040059104A1, “Nucleotide mimics and their prodrugs” (priority 2002, published 2004).
pIC50, pKi: −log10 of the molar value. Read-outs that look alike come from different tables or passages of the source.

Key:
CEM-SS cells = assay: Compound toxicity in CEM-SS cells (MTS staining); assay type: cell-based; conditions: read-out: CEM-SS TC50
Method: (§1) ollowing paper: Structure-Activity and Cross-Resistance unodeficiency Virus Type 1-Specific ckheit, Jr. et al., Antimicrobial Agents and s were evaluated in CEM-SS cell cultures V-1RF at an MOI of approximately 0.01. At he soluble tetrazolium-based dye MTS viability and quantify compound toxicity of metabolically active cells to yield a soluble analysis of cell viability and compound
(§2) At assay termination, the assay plates were stained with the soluble tetrazolium-based dye MTS (CellTiter Reagent Promega) to determine cell viability and quantify compound toxicity. MTS is metabolized by the mitochondrial enzymes of metabolically active cells to yield a soluble formazan product, allowing the rapid quantitative analysis of cell viability and compound cytotoxicity. […] At termination of the assay, 20 μL of MTS reagent was added per well. The microtiter plates were then incubated 4-6 hrs at 37° C. for the HIV cytoprotection assay; the incubation intervals were chosen based on empirically determined times for optimal dye reduction. Adhesive plate sealers were used in place of the lids, the sealed plate was inverted several times to mix the soluble formazan product and the plate was read spectrophotometrically at 490 nm with a Molecular Devices Vmax plate reader.

HIV-1RF = assay: Anti-HIV-1 cytoprotection assay in CEM-SS cells; assay type: cell-based; conditions: CEM-SS cells infected with HIV-1RF, MOI approximately 0.01, 6 days, MTS; read-out: CEM-SS IC50 (Anti-HIV Screening)
Method: as §1
Efficacy Evaluation in CEM-SS Cells Anti-HIV-1 Cytoprotection Assay
Cell Preparation—CEM-SS cells were passaged in T-75 flasks prior to use in the antiviral assay. On the day preceding the assay, the cells were split 1:2 to assure they were in an exponential growth phase at the time of infection. Total cell and viability quantification was performed using a hemacytometer and trypan blue exclusion. Cell viability was greater than 95% for the cells to be utilized in the assay. The cells were resuspended at 5×10^4 cells/ml in tissue culture medium and added to the drug-containing microtiter plates in a volume of 50 μl.
Virus Preparation—The virus used for these tests was the lymphocytropic virus strain HIV-1RF. This virus was obtained from the NIH AIDS Research and Reference Reagent Program and was grown in CEM-SS cells for the production of stock virus pools. For each assay, a pre-titered aliquot of virus was removed from the freezer (−80° C.) and allowed to thaw slowly to room temperature in a biological safety cabinet. The virus was resuspended and diluted into tissue culture medium such that the amount of virus added to each well in a volume of 50 μl was the amount determined to give between 85 to 95% cell killing at 6 days post-infection.
as §2

Staphylococcus aureus = assay: Antimicrobial assay, minimal inhibitory concentration; assay type: cell-based
Method: (§3) To examine the antimicrobial potential of the nucleotide mimics of the present invention an assay was employed that allowed the screening of a large number of compounds simultaneously. The type of bacteria chosen to screen the compounds are organisms associated with human disease and represent major groups of bacteria based on their structure and metabolism. Bacterial cultures of Escherichia coli and Staphylococcus aureus were incubated overnight at 37° C. in a shaker incubator. A lawn of each overnight bacterial culture was made by plating […] of bacteria on agar plates containing Nutrient Broth. Immediately after plating, sterile blank paper discs were put on top of the lawn and a compound was applied to each blank paper disc. Plates were then incubated overnight and examined for the inhibition of bacterial growth the following day. […] The plates were incubated overnight at 37° C. and then examined spectrophotometrically at 600 nm to determine the minimum concentration of each compound that inhibited replication of bacteria as determined by no increase in absorbance at 600 nm.

[1] = Serum stability assessment
Method: Typically the total volume used for the experiment was 500 μl. The final concentrations of the reaction components were as follows:
The reacton mixtures were made up and incubated at 37° C. At appropriate times aliquots of 25 μl were removed and added to 65 μl ice-cold methanol. These solutions were our at −20° C. and typically overnight. After incubation samples were inutes at high speed in a microcentrifuge. The supernatant was nd the extract was dried under vacuum in a LabConco Centrivap Concentrator. The dried extracts were resuspended in dH2O and filtered to remove particulate before analysis on reverse phase HPLC.
The reverse phase HPLC columns used for the analysis were either a Phenomenex C18 Aqua column (2×100 mm) or the Phenomenex C18 Aqua column (3×150 mm) used with the appropriate guard column. The HPLC was run at 0.2 ml/min (for the 2×100 mm column) or at 0.5 ml/min (for the 3×150 mm column) with the following buffer system: 5 mM tetrabutylammonium acetate, 50 mM ammonium phosphate, and an acetonitrile gradient running from 5% up to as high as 60%. The amount of remaining parent compound at each time point was used to determine the half-life of the compound. […] Unmodified nucleoside triphosphates were used as positive controls.

[2] = Stability assessment using cell extracts
Method: The stability of compounds in cell extracts was examined as follows:
Cell lysis buffer was added to cell pellets and the cells frozen and thawed 3× using dry ice. The lysis buffer (LB) was composed of the following: 50 mM Tris-HCl, pH 7.4 (100 μl/ml 10× stock), 20% glycerol (200 μl/ml), and 0.5% Triton X-100 (5 μl/ml). 100 μl of LB was added to each microfuge tube containing 10^7 frozen CEM cells. After the cells were lysed the extracts were centrifuged at high speed in a microcentrifuge for 5 minutes and the clarified cell extract transferred to a new tube. The cell stability reaction mixtures contained concentrations of buffer, magnesium, nucleotide, and cell extract as shown below:
The reaction mixtures were incubated at 37° C. At each time point, including at time zero, 12.5 μl aliquots were added to 40 μl ice-cold methanol. […] The samples were incubated in methanol for at least 60 minutes and typically overnight at −20° C. prior to further processing. The cell extracts were centrifuged at high speed in refrigerated microcentrifuge for 20 minutes and the supernatant transferred to a new tube. The extract was then dried under vacuum in a LabConco Centrivap Concentrator. The samples were then resuspended in 40 or 50 μl dH2O, filtered to remove any particulate, and analyzed by reverse phase HPLC.
The reverse phase HPLC columns used for the analysis were either a Phenomenex C18 Aqua column (2×100 mm) or the Phenomenex C18 Aqua column (3×150 mm) used with the appropriate guard column. The HPLC flow rate was either 0.2 ml/min (for the 2×100 mm column) or 0.5 ml/min (for the 3×150 mm column) with the following buffer system: 5 mM tetrabutylammonium acetate, 50 mM ammonium phosphate, and an acetonitrile gradient running from 5% up to as high as 60%. The amount of remaining parent compound at each time point was used to determine the half-life of the compound. […] Unmodified nucleoside triphosphates were used as positive controls.

Escherichia coli = assay: Antimicrobial assay, minimal inhibitory concentration; assay type: cell-based; conditions: for MIC: Escherichia coli, read-out: E. coli MIC
Method: as §3

[3] = target: T1, HIV Reverse Transcriptase (Type B, 66 kDa subunit) (Human immunodeficiency virus type 1 group M subtype B, UniProt P04585); assay: HIV Reverse Transcriptase inhibition assays (RNA-directed DNA polymerization, PicoGreen fluorescence); assay type: biochemical; conditions: Table 1; template (homopolymer or heteropolymer RNA) not stated; read-out: Ki, Inhibition of HIV Reverse Transcriptase by Nucleotide Mimics
T1 construct: purified HIV Reverse Transcriptase (Type B, 66 kDa subunit)
Method: The assays employed to measure inhibition of HIV Reverse Transcriptase (HIV RT) catalyzed/RNA-directed DNA polymerization are described below. The effectiveness of the compounds of the present invention as inhibitors of HIV RT-catalyzed DNA polymerization was measured in the following assays.
This assay was used to measure the ability of the nucleotide mimics of the present invention to inhibit the enzymatic synthesis of complementary strand DNA from a DNA-primed template of homopolymeric RNA. This assay is a modification of a published procedure (Seville, et al., “Fluorometric Assay for DNA Polymerases and Reverse Transcriptase”, BioTechniques 1996, 21, 664-72).
The compounds were tested at various concentrations up to 500 μM final concentration. DNA polymerase activity was measured in a reaction buffer containing primed-RNA template and dTTP diluted to appropriate concentrations in assay buffer. Nucleotide mimics of the present invention were diluted in buffer and pipetted into the wells of a 96-well plate. The reaction was initiated by addition of enzyme and allowed to proceed at 37° C. for 10 minutes. The reaction was quenched by addition of 5 μL 0.2 M EDTA, pH 8.0.
200 μL of diluted PicoGreen dsDNA Quantitation Reagent (Molecular Probes, Inc, Eugene, Oreg.) was added to each well of a 96-well plate and incubated at room temperature for 5 minutes. Plate wells were read on a microplate fluorometer (Molecular Devices Corp., Sunnyvale, Calif.). The wells were excited at 480 nm and the fluorescence emission intensity (RFU) was measured at 520 nm. The percentage of inhibition was calculated according to the following equation:
% Inhibition=[1−(RFU in test reaction−RFU in blank)/(RFU in control reaction−RFU in blank)]×100.
Each inhibitor was titrated over an appropriate range of concentrations, and inhibition constants were determined using the following equations:
v=Vm[S]/(Km(1+[I]/Ki)+[S])
Certain compounds of the present invention were also tested to determine their ability to inhibit HIV RT-catalyzed DNA polymerization on a heteropolymeric primed-RNA template in the presence of all four natural deoxynucleotide triphosphate (dNTP) substrates. This assay is a modification of a published procedure (Parker et al., “Mechanism of Inhibition of Human Immunodeficiency Virus Type 1 Reverse Transcriptase and Human DNA Polymerases α, β, and γ by the 5′-Triphosphates of Carbovir,3′-Azido-3′-deoxythymidine,2′-3′-Dideoxyguanosine, and 3′-Deoxythymidine”, J. Biol. Chem. 1991, 266 (3), 1754-62).
HIV RT DNA polymerase activity was measured in a reaction buffer containing primed-ribosomal RNA template and dNTPs diluted to appropriate concentrations in assay buffer and pipetted into 1.5 mL microcentrifuge tubes. Nucleotide mimics of the present invention were diluted in buffer and tested at various concentrations up to 5 μM final concentration. The reaction was initiated by addition of enzyme and allowed to proceed at 42° C. for 60 to 90 minutes. The reaction was quenched by addition of 12 μL 0.2 M EDTA, pH 8.0.
50 μL each of reaction was transferred to the well of a 96-well plate (in duplicate). 200 μL of diluted PicoGreen dsDNA Quantitation Reagent was added to each well of a 96-well plate and incubated at room temperature for 5 minutes. Plate wells were read on a microplate fluorometer. The wells were excited at 480 nm and the fluorescence emission intensity (RFU) was measured at 520 nm. The percentage of inhibition and inhibition constants […] were determined for representative compounds as described above.

[4] = overnight at 37° C., tested 0-200 μg/ml, NA = Not active
[5] = value in brackets beside the μg/ml value

Compound | CC50 (CEM-SS cells) [µM] | pIC50 (HIV-1RF) | S. aureus MIC (Staphylococcus aureus; [4]) [µg/mL] | S. aureus MIC (Staphylococcus aureus; [5]) | E. coli MIC (Escherichia coli; [4]) [µg/mL] | E. coli MIC (Escherichia coli; [5]) | pKi [3] | other results
3′-Azido-3′-deoxythymidine 5′-α-P-borano-β,γ-diluoromethylene-γ-O-(4-nitrophenyl)triphosphate [Compound 43] | 125 | 5.19 | – | – | – | – | – | –
CC(C)(C)C(=O)SCCOP(=O)(O)CP(=O)(OCCSC(=O)C(C)(C)C)OC[C@H]1O[C@@H](n2ccc(N)nc2=O)C(F)(F)[C@@H]1O (stereo partly drawn) [Compound 76, 2′-deoxy-2′,2′-difluorocytidine 5′-di-α, β-O—(S-pivaloyl-2-thioethyl)-α,β-methylenediphosphonate] | – | – | 25 | (35) μM | – | – | – | Half-Life, Serum Half-Lives of Gemcitibine Diphosphate Mimics and Their Prodrugs ([1]; Table 8, 50% fetal calf serum, 37° C., 500 μM, time points through 48 hours): >48 h; Half-Life, Cell Extract Half-Lives of Gemcitibine 5'-Methylendiphosphonate and its Prodrugs ([2]; Table 11, 50% CEM cell extract, 37° C., 500 μM, time points through 48 hours): 37 h
2′-Deoxy-2′,2′-difluorocytidine 5′-β-O—(S-pivaloyl-2-thioethyl) -α,β-methylene-diphosphonate [Compound 75] | – | – | 15 | (26) μM | – | – | – | –
3′-Azido-3′-deoxythymidine 5′-α-P-borano-β,γ-difluoromethylene-γ-O-methyltriphosphate [Compound 40] | > 200 | 5.40 | – | – | 25 to 50 | (40-80) uM | 7.16 | –
BP(=O)(OC[C@@H]1O[C@H](n2cc(C)c(=O)[nH]c2=O)C[C@H]1N=[N+]=[N-])OP(=O)(O)C(Cl)(Cl)P(=O)(O)O (single isomer, unassigned; isomer 1) [Compound 26-isomer 1, 3′-Azido-3′-deoxythymidine 5′-α-P-borano-β,γ-(dichloromethylene)triphosphate] | – | – | – | – | 12 | (21) uM | 7.03 | Half-Life, Serum Half-Lives of NTPs and AZT Triphosphate Mimics ([1]; bovine, serum): 45 h; Half-Life, Cell extract Half-Lives of AZT Triphosphate Mimics ([2]; human): >48 h
[BH3-][P+](O)(OCC1OC(n2cc(C)c(=O)[nH]c2=O)CC1N=[N+]=[N-])OP(=O)(O)C(Cl)(Cl)P(=O)(O)O (single isomer, unassigned) [Compound 26-isomer 2, 3′-Azido-3′-deoxythymidine 5′-α-P-borano-β,γ-(dichloromethylene)triphosphate] | – | – | – | – | – | – | 7.13 | MIC (Escherichia coli; [4]): 10 µg/mL; MIC (Escherichia coli; [5]): 17.5 µM; half-life at 500 μM ([1]; bovine, serum, Half-Life, Serum Half-Lives of NTPs and AZT Triphosphate Mimics): 48 h; half-life at 500 μM ([2]; human, pH 7.4): > 48 h
